Columns and labels:
[1] = system: Carrageenin edema in rat's paw; experiment: Carrageenin Edema Test in Rat's Paw (anti-inflammatory activity, Table 1); assay type: in vivo; settings: 100 mg/kg oral, hydrochloride, rat
Procedure: An anti-inflammatory activity was measured by orally administering 100 mg/kg of a hydrochloride of the indazole derivative of this invention as set forth in Table 1 to an animal in accordance with the standard method of Carrageenin Edema Test in Rat's Paw described in C. A. Winter et al., Proc. Soc. Exp. Biol. Med., 111, 544 (1962).

in vivo = settings: mouse, ip, intraperitoneal, hydrochloride, male ddy mice

| Compound | inhibition in vivo at 100 mg/kg [1] [%] | LD50 (in vivo) [mg/kg] |
| --- | --- | --- |
| CCN(CC)CCCn1nc(NCCCCCCN2CCCCC2)c2cc(O)ccc21 [(127), 1-(3-Diethylaminopropyl)-3-(6-piperidinohexylamino)-5-hydroxyindazole] | 21 | 198 |
| CCCCN(CCCC)CCCNc1nn(CCCN(CC)CC)c2ccc(O)cc12 [(128), 1-(3-Diethylaminopropyl)-3-(3-di-n-butylaminopropylamino)-5-hydroxyindazole] | 31 | 170 |
| CCN(CC)CCCn1nc(NCCC(C)N2CCCCC2)c2cc(O)ccc21 (centres unmarked) [(129), 1-(3-Diethylaminopropyl)-3-(3-piperidinobutylamino)-5-hydroxyindazole] | 27 | 240 |
| CCN(CC)CCCNc1nn(CCCN2CCCCC2)c2ccc(O)cc12 [(130), 1-(3-Piperidinopropyl)-3-(3-diethylaminopropylamino)-5-hydroxyindazole] | 29 | 211 |
| Oc1ccc2c(c1)c(NCCCN1CCCCC1)nn2CCCN1CCCCC1 [(131), 1-(3-Piperidinopropyl)-3-(3-piperidinopropylamino)-5-hydroxyindazole] | 28 | 298 |
| Oc1ccc2c(c1)c(NCCCCCCN1CCCCC1)nn2CCCN1CCCCC1 [(132), 1-(3-Piperidinopropyl)-3-(6-piperidinohexylamino)-5-hydroxyindazole] | 21 | 310 |
| CC(CCNc1nn(CCCN2CCCCC2)c2ccc(O)cc12)N1CCCCC1 (centres unmarked) [(133), 1-(3-Piperidinopropyl)-3-(3-piperidinobutylamino)-5-hydroxyindazole] | 28 | 330 |
| CCN(CC)CCCNc1nn(CCC(C)N2CCCCC2)c2ccc(O)cc12 (centres unmarked) [(134), 1-(3-Piperidinobutyl)-3-(3-diethylaminopropylamino)-5-hydroxyindazole] | 29 | 349 |
| CC(CCn1nc(NCCCN2CCCCC2)c2cc(O)ccc21)N1CCCCC1 (centres unmarked) [(135), 1-(3-Piperidinobutyl)-3-(3-piperidinopropylamino)-5-hydroxyindazole] | 28 | 298 |
| CC(C)CC(CCNc1nn(CCC(C)N2CCCCC2)c2ccc(O)cc12)N1CCCCC1 (centres unmarked) [(136), 1-(3-Piperidinobutyl)-3-(3-piperidino-5-methylhexylamino)-5-hydroxyindazole] | 21 | 241 |
| CC(CCNc1nn(CCC(C)N2CCCCC2)c2ccc(O)cc12)N(C)C (centres unmarked) [(137), 1-(3-Piperidinobutyl)-3-(3-dimethylaminobutylamino)-5-hydroxyindazole] | 21 | 258 |
| CCN(CC)CCCNc1nn(CCC(C)N(C)C)c2ccc(O)cc12 (centres unmarked) [(138), 1-(3-Dimethylaminobutyl)-3-(3-diethylaminopropylamino)-5-hydroxyindazole] | 29 | 213 |
| CC(CCn1nc(NCCCN2CCCCC2)c2cc(O)ccc21)N(C)C (centres unmarked) [(139), 1-(3-Dimethylaminobutyl)-3-(3-piperidinopropylamino)-5-hydroxyindazole] | 28 | 249 |
| CC(CCn1nc(NCCC(C)N2CCCCC2)c2cc(O)ccc21)N(C)C (centres unmarked) [(140), 1-(3-Dimethylaminobutyl)-3-(3-piperidinobutylamino)-5-hydroxyindazole] | 27 | 313 |
| CCN(CC)C(CCNc1nn(CCC(C)N(C)C)c2ccc(O)cc12)CC(C)C (centres unmarked) [(141), 1-(3-Dimethylaminobutyl)-3-(3-diethylamino-5-methylhexylamino)-5-hydroxyindazole] | 21 | 340 |
| Oc1ccc2c(c1)c(NCCCN1CCCCCC1)nn2CCCN1CCCC1 [(142), 1-(3-Pyrrolidinopropyl)-3-(3-homopiperidinopropylamino)-5-hydroxyindazole] | 28 | 349 |

Reference: patent US4751302A, “Indazole derivatives” (priority 1982, dated 1988)
